Article PMC2174548 (The Journal of Cell Biology, 2000)

Columns and labels:
Type in all cases: cell-based
[1] = molecular target: T1, P-glycoprotein (Pgp) (Homo sapiens, UniProt P08183); assay: cellular drug accumulation versus Pgp expression
[2] = molecular target: T1, P-glycoprotein (Pgp); assay: protection from microtubule depolymerization in PgpGFP-transfected HeLa cells
[3] = molecular target: T1, P-glycoprotein (Pgp); assay: fluorescence accumulation in PgpGFP-transfected cells
[4] = molecular target: T1, P-glycoprotein (Pgp); assay: protection from microtubule depolymerization in PgpGFP-transfected HeLa cells; remark: listed apart in the source
[5] = molecular target: T1, P-glycoprotein (Pgp); assay: fluorescence accumulation in PgpCFP-transfected cells

T1 sequence (P08183 whole entry): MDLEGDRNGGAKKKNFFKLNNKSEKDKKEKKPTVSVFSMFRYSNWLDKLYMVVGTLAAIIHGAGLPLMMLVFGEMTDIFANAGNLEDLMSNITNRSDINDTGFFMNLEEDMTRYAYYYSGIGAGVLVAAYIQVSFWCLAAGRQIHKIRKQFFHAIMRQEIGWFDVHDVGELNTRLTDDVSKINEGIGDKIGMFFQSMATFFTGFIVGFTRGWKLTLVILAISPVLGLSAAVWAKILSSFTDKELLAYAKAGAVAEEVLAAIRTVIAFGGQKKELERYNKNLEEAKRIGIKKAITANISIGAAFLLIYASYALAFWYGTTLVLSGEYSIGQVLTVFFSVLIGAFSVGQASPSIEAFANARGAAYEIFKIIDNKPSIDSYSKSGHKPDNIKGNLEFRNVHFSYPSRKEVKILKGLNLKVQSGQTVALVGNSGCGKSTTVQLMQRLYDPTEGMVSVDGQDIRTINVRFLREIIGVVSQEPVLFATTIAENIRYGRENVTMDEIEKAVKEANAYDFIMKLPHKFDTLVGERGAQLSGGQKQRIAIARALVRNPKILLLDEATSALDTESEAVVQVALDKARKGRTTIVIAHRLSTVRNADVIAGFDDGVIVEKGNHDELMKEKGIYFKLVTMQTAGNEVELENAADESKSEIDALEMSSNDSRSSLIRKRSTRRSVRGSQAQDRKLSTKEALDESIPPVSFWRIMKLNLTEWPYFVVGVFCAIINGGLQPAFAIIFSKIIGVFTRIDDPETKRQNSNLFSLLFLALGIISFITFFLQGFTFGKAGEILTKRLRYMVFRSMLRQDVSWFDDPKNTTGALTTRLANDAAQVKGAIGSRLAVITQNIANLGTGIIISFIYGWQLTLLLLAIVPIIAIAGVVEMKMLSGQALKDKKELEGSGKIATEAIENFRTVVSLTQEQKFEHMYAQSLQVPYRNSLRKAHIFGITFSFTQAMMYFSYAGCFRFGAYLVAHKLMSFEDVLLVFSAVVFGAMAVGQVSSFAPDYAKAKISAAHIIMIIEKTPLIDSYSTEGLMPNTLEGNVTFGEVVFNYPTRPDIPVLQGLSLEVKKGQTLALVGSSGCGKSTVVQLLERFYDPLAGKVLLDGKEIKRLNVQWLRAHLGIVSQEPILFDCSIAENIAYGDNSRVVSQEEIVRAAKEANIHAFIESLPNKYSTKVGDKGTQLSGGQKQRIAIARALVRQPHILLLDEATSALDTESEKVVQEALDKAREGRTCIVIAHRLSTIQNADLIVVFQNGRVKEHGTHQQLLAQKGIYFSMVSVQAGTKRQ

Question: O=C1c2c(O)ccc(O)c2C(=O)c2c(NCCNCCO)ccc(NCCNCCO)c21 [mitoxantrone] was tested. Which “cellular drug accumulation versus Pgp expression (data not shown)” value [1] did it give?
Answer: The value was “the level of Pgp expression was inversely related to the cellular accumulation of mitoxantrone”.

Question: Which Fold resistance [2] does the source give for COc1cc2c(c(OC)c1OC)-c1ccc(OC)c(=O)cc1[C@@H](NC(C)=O)CC2 [colchicine] here?
Answer: Its Fold resistance is 5–25 fold.

Question: For CC(=O)OCOC(=O)CN(CC(=O)OCOC(C)=O)c1ccc(C)cc1OCCOc1cc2cc(-c3ncc(C(=O)OCOC(C)=O)o3)oc2cc1N(CC(=O)OCOC(C)=O)CC(=O)OCOC(C)=O [Fura-2 AM], which Effects on fluorescence [3] is on record?
Answer: The Effects on fluorescence was greater than 10 fold.

Question: Which “protection from microtubule depolymerization in PgpGFP-transfected HeLa cells (2)” value [4] does the source give for CC[C@]1(O)C[C@H]2CN(CCc3c([nH]c4ccccc34)[C@@](C(=O)OC)(c3cc4c(cc3OC)N(C=O)[C@H]3[C@@](O)(C(=O)OC)[C@H](OC(C)=O)[C@]5(CC)C=CCN6CC[C@]43[C@@H]65)C2)C1 [vincristine] here?
Answer: The value was 25–125 fold.

Question: How did the Effects on fluorescence [5] turn out when CC(=O)OCOC(=O)CN(CC(=O)OCOC(C)=O)Cc1cc2c(cc1OC(C)=O)Oc1cc(OC(C)=O)c(CN(CC(=O)OCOC(C)=O)CC(=O)OCOC(C)=O)cc1C21OC(=O)c2ccccc21 [Calcein AM] was run?
Answer: Its Effects on fluorescence is greater than 10 fold.
